Reference: publication PMC6429710, “Structure–activity relationships in a series of antiplasmodial thieno[2,3-b]pyridines” (Malaria Journal, 2019)
In brackets after ≈: the same amount, converted by molar mass. Like-named read-outs stand apart in the source and are kept apart here.

Legend:
[1] = tested on: asexual erythrocytic stages of transgenic NF54-luc P. falciparum; assay: Luciferase-based viability screening for antiplasmodial activity; format: cell-based, Plasmodium falciparum; conditions: for % inhibition ± SD, PfNF54-Luc at 3 µM: 3 µM test compound, luciferase readout; for IC50: read-out: IC50 [µM], PfNF54-Luc
Procedure: For the luciferase-based viability assays, asexual erythrocytic stages of transgenic NF54-luc P. falciparum were used. These parasites constitutively express high luciferase levels. The parasites were cultured as described previously. Parasite cultures with parasitaemia of 0.5–1% were dispensed in triplicate into white 96-well flat-bottom plates (each well contains 250 µL) (NUNC, Roskilde, Denmark) and incubated in the presence of 3 µM test compounds for 48 h (37 °C, 90% N2, 5% CO2, and 5% O2). 0.01% DMSO was included in the untreated infected RBC cultures as negative control, since the compounds stock initially was diluted in DMSO and each treatment well also contained 0.01% DMSO. Subsequently, 100 µL RPMI1640 media was removed from each well and a 100 µL volume of the Bright-Glo® substrate solution was added to each well. The resultant cleavage product of the reaction, light, was measured using a […] luminometer (Thermo), to ascertain viable parasites. Untreated cultures were used as negative controls and to calculate the inhibition rate (0% inhibition of parasite growth). Experiments were performed in triplicate and were repeated as a whole at least twice. Blasticidin (Sigma-Aldrich, St. Louis, MO, USA), used for selection of transfected parasites, was included as a positive control on each plate and gave > 90% inhibition of parasite growth at concentration 2 µg/mL. […] For active compounds IC50 values were determined from dose–response curves. Calculation of parasite growth inhibition, of the IC50 values and statistical analysis were carried out using GraphPad Prism Version 6.0b (GraphPad Software, Inc. San Diego, CA).

[2] = target: T1, PfGSK-3 (Plasmodium falciparum, UniProt O77344); assay: biochemical; format: biochemical; conditions: for IC50: 6 µM ATP, mean of three determinations, range in brackets, read-out: IC50 [µM], PfGSK-3 (Kinase Glo Plus)
T1 construct: 6xHis; made in house; host or cells: Escherichia coli C41
T1 sequence (O77344 1-440): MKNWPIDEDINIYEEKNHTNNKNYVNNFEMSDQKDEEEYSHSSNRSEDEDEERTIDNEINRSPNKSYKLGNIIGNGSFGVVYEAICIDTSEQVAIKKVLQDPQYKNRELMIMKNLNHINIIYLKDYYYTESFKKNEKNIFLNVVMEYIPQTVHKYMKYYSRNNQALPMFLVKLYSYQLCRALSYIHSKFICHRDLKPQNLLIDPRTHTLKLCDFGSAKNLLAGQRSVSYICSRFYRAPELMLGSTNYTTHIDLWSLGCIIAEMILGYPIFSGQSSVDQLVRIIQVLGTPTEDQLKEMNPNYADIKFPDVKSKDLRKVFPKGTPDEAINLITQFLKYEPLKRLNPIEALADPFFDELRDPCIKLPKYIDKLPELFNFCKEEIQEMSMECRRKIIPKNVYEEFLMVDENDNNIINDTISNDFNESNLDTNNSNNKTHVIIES
Procedure: PfGSK-3 was cloned into pOPIN F expression vector [41] using ligation independent cloning (InFusion, Takara Clontech). Expression vector was transformed into Escherichia coli C41 and expression of recombinant PfGSK3-6xHis was induced by incubation with 1 mM IPTG at 16 °C overnight.
Kinase activity was measured using Kinase-Glo Plus Luminescent Kinase Assay (Promega). 20 ng recombinant GSK-3 were incubated for 30 min at 30 °C in the presence of 12 μM GS-1 peptide substrate ([…]pSEDEEE, pS stands for phosphorylated serine, Biaffin GmbH & Co KG/proteinkinase.de) and 6 μM ATP (ultra pure, Promega) in a total volume of 5 μL kinase reaction buffer (40 mM Tris/HCl pH 7.5; 20 mM MgCl2; 0.1 mg/mL BSA). Kinase reaction mix was transferred to a solid white 384 well plate (NUNC, Thermo Scientific) and kinase reaction was stopped by adding 5 μL RT Kinase-Glo reagent. After 10 min luminescence was measured in an EnVision multilabel plate reader (Perkin Elmer, integration time 0.5 s/well). […] All samples were normalized to a negative control (reaction without kinase). Data points were plotted into Graphpad Prism, normalized to a DMSO control and IC50 values were calculated using nonlinear regression.

[3] = target: HsGSK-3 (Homo sapiens, UniProt P49841); assay: Kinase-Glo Plus assay for inhibition of HsGSK-3; format: biochemical; conditions: 6 µM ATP; mean of three determinations, range in brackets
HsGSK-3, sequence (P49841 whole entry): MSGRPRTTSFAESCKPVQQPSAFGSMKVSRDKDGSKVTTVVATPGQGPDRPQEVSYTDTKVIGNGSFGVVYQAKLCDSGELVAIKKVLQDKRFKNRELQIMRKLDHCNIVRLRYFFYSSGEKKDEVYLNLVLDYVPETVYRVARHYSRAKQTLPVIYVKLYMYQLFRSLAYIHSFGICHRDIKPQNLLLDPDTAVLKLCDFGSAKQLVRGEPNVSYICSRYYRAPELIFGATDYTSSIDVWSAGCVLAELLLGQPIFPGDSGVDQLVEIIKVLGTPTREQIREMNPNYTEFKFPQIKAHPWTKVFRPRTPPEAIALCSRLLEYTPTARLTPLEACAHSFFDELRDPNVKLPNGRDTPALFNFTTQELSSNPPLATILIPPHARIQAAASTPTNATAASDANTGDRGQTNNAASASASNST
Procedure: Kinase reaction mix was transferred to a solid white 384 well plate (NUNC, Thermo Scientific) and kinase reaction was stopped by adding 5 μL RT Kinase-Glo reagent. After 10 min luminescence was measured in an EnVision multilabel plate reader (Perkin Elmer, integration time 0.5 s/well). […] All samples were normalized to a negative control (reaction without kinase). Data points were plotted into Graphpad Prism, normalized to a DMSO control and IC50 values were calculated using nonlinear regression.

[4] = tested on: HEK293T cells; assay: Cytotoxicity assay on HEK293 cells (PrestoBlue viability); format: cell-based, human
Procedure: HEK293T cells were seeded into a solid black flat bottom 96 well plate (2.5 × 10^4 cells/well) in 200 μL Dulbecco Modified Eagle Medium (DMEM) supplemented with 10% fetal bovine serum and 1% Pen/Strep (final concentration of 100 U/mL Penicillin and 100 μg/mL Streptomycin). Cells were incubated at 37 °C under 5% CO2. After 18 h the supernatant was removed and fresh DMEM containing serial dilutions of compounds was added. Compounds were solubilized in DMSO (final DMSO concentration in HEK293T culture was 0.5%.) Wells containing 0.5% DMSO served as a negative control. Plates were incubated for further 48 h at 37 °C under 5% CO2. To monitor cell viability the supernatant was removed and cells were incubated with 200 μL 10% PrestoBlue (Invitrogen) in PBS at 37 °C. After 30 min fluorescence (λex = 560 nm, λem = 590 nm) was measured in an EnVision multilable plate reader (Perkin Elmer, integration time 0.1 s/well). Data points were plotted into Graphpad Prism, normalized to the DMSO control and IC50 values were calculated using nonlinear regression.

[5] = tested on: asexual erythrocytic stages of transgenic NF54-luc P. falciparum; set-up: method as in PMID 23214499; conditions: prototype compound 1; read-out: IC50 [µM], PfNF54-Luc; cited from earlier work
[6] = Kinetic solubility by laser nephelometry; format: physicochemical; conditions: kinetic from dmso stock, aqueous phosphate buffer pH 7.4, 1% DMSO, 25 °C, mean ± standard deviation, read-out: S0 pH 7.4, exp (kinetic solubility)
Procedure: Kinetic solubility indicates the solubility of the most rapidly precipitating form. Kinetic solubilities of 1 and 4h were determined by laser nephelometry using the […] nephelometer (BMG LabTech, Ortenberg, Germany) and F-bottom transparent 96-well plates. The instrument uses red laser light (635 nm, 80% intensity), which passes through the 96-well plate and which is scattered by turbid suspensions. Each compound was measured six times at 25 °C by preparing three independent stock solutions in concentrations of 5 to 10 mM in DMSO. From each stock solution two independent dilution series were prepared. Based on preliminary experiments, dilution concentrations were chosen such that at least five to six concentrations below and above the expected point of precipitation were recorded. To the 96-well plate containing 198 μL aqueous phosphate buffer at pH 7.4, 2 μL of each dilution sample in DMSO was added and shaken for 10 s. at 700 rpm (double orbital). […] The pH was adjusted by adding sulfuric acid. First, the plates were scanned without content to quantify the background, which was later subtracted from the obtained values of each individual well. As blank, 2 μL of neat DMSO was added to the phosphate buffer. Close to the point of precipitation, particle concentration can be assumed to be proportional to the intensity of scattered light. […]

[7] = from dose-response curves, 48 h

Row | Compound | % inhibition ± SD, PfNF54-Luc at 3 µM ([1]; 48 h) | IC50 [1, 7] | also measured
1 | N#Cc1c(N)nc2sc(C(=O)c3cccc(Cl)c3)c(N)c2c1-c1ccc(Cl)cc1Cl [2a] | 25.7 ± 3.5% | 6.2 µM | 
2 | N#Cc1c(N)nc2sc(C(=O)c3cccc(Cl)c3)c(N)c2c1-c1ccc(F)cc1Cl [2b] | 28.1 ± 3.3% | 6.1 µM | 
3 | Cc1ccc(-c2c(C#N)c(N)nc3sc(C(=O)c4cccc(Cl)c4)c(N)c23)c(Cl)c1 [2d] | 12.4 ± 2.4% |  | 
4 | N#Cc1c(N)nc2sc(C(=O)c3cccc(Cl)c3)c(N)c2c1-c1ccc(O)cc1Cl [2e] | 0.2 ± 2.5% |  | 
5 | COc1ccc(-c2c(C#N)c(N)nc3sc(C(=O)c4cccc(Cl)c4)c(N)c23)c(Cl)c1 [3a] | 33.2 ± 3.2% | 12.2 µM | 
6 | CCOc1ccc(-c2c(C#N)c(N)nc3sc(C(=O)c4cccc(Cl)c4)c(N)c23)c(Cl)c1 [3b] | 14.5 ± 1.3% |  | 
7 | N#Cc1c(N)nc2sc(C(=O)c3cccc(Cl)c3)c(N)c2c1-c1ccc(OCc2ccccc2)cc1Cl [3c] | 12.8 ± 4.9% |  | 
8 | N#Cc1c(N)nc2sc(C(=O)c3cccc(Cl)c3)c(N)c2c1-c1ccc(OCCO)cc1Cl [3d] | 25.6 ± 3.3% | 20 µM | 
9 | N#Cc1c(N)nc2sc(C(=O)c3cccc(Cl)c3)c(N)c2c1-c1ccc(OCC(O)CO)cc1Cl (centres unmarked) [3f] | 14.7 ± 1.8% |  | 
10 | N#Cc1c(N)nc2sc(C(=O)c3cccc(Cl)c3)c(N)c2c1-c1ccc(OCC(=O)O)cc1Cl [3g] | 31.3 ± 1.1% |  | 
11 | CN(C)c1ccc(-c2c(C#N)c(N)nc3sc(C(=O)c4cccc(Cl)c4)c(N)c23)c(Cl)c1 [4a] | 29.9 ± 5.6% | 5.7 µM | 
12 | N#Cc1c(N)nc2sc(C(=O)c3cccc(Cl)c3)c(N)c2c1-c1ccc(N2CCCC2)cc1Cl [4c] | 33.0 ± 2.4% |  | 
13 | N#Cc1c(N)nc2sc(C(=O)c3cccc(Cl)c3)c(N)c2c1-c1ccc(N2CCCCC2)cc1Cl [4d] | 39.1 ± 1.1% | 5 µM | 
14 | N#Cc1c(N)nc2sc(C(=O)c3cccc(Cl)c3)c(N)c2c1-c1ccc(N2CCOCC2)cc1Cl [4e] | 20.2 ± 4.8% |  | 
15 | CN(CCNC(=O)OC(C)(C)C)c1ccc(-c2c(C#N)c(N)nc3sc(C(=O)c4cccc(Cl)c4)c(N)c23)c(Cl)c1 [4f] | 67.1 ± 2.7% | 2.5 µM | 
16 | CC(C)(C)OC(=O)N1CCN(c2ccc(-c3c(C#N)c(N)nc4sc(C(=O)c5cccc(Cl)c5)c(N)c34)c(Cl)c2)CC1 [4g] | 42.1 ± 2.9% | 3.8 µM | 
17 | CN(CCN)c1ccc(-c2c(C#N)c(N)nc3sc(C(=O)c4cccc(Cl)c4)c(N)c23)c(Cl)c1.Cl [4i] | 8.1 ± 3.3% |  | 
18 | Cl.N#Cc1c(N)nc2sc(C(=O)c3cccc(Cl)c3)c(N)c2c1-c1ccc(N2CCNCC2)cc1Cl [4j] | 75.7 ± 1.5% | 1.5 µM | 
19 | CCN(CC)c1ccc(-c2c(C#N)c(N)nc3sc(C(=O)c4cccc(Cl)c4)c(N)c23)c(Cl)c1 [(+)4b] |  |  | IC50 [2]: 39.6 µM; IC50 [3]: > 100 µM; inhibition at 3 µM ([1]; Plasmodium falciparum, NF54, 48 h, read-out: % inhibition ± SD, PfNF54-Luc at 3 µM): 73 ± 1.2%; IC50 ([1]; Plasmodium falciparum, NF54, 48 h): 1.1 µM
20 | CCN(CC)c1ccc(-c2c(C#N)c(N)nc3sc(C(=O)c4cccc(Cl)c4)c(N)c23)c(Cl)c1 [(−)4b] |  |  | IC50 [2]: > 100 µM
21 | CN(CC[C@H](N)CC(=O)N[C@H]1C=C[C@H](n2ccc(N)nc2=O)O[C@@H]1C(=O)O)C(=N)N [BS, Blasticidin, reference compound] | 99.3 ± 0.7% |  | inhibition of parasite growth (positive control) ([1]; 2 µg/mL, 48 h): > 90%
22 | N#Cc1c(N)nc2sc(C(=O)c3cccc(Cl)c3)c(N)c2c1-c1ccccc1Cl [compound 1] |  |  | SI (selectivity index) = IC50 HEK293T/IC50 PfNF54-Luc ([4]; HEK293T versus PfNF54-Luc): 6.4; IC50 ([4]; Homo sapiens, HEK-293T, cell viability, 48 h, mean of six determinations, range in brackets): 35.2 µM; IC50 [2]: 0.24 µM; selectivity index plasmodial versus human GSK-3 ([2]; Kinase Glo Plus assay, PfGSK-3 versus HsGSK-3): 38; IC50 [3]: 9.08 µM; IC50 [5]: 5.5 µM; solubility kinetic at 10 s [6]: 1.5 ± 0.3 µM (≈ 0.659 µg/mL)
